Measurements taken from patent US20250163038A1, “CBL-B MODULATORS AND USES THEREOF” (Nimbus Clio, Inc., priority 2021, published 2025).

Assays:
[1] = target: Recombinant human Cbl-b (aa 36-427) (Homo sapiens, UniProt Q13191); test: Cbl-b Biochemical Assay (TR-FRET); conditions: read-out: TR-FRET hCbl-b IC50
[2] = test system: Jurkat (clone E6-1) cells with NFAT luciferase reporter; test: Jurkat reporter assay (NFAT Luciferase); type: cell-based; conditions: Homo sapiens; Jurkat NFAT luciferase reporter cells, anti-CD3 stimulation, 6 hr; read-out: Jurkat NFAT EC50
[3] = target: T1, Recombinant human c-Cbl (aa 47-435) (Homo sapiens, UniProt P22681); test: c-Cbl Biochemical Assay (TR-FRET); conditions: hc-Cbl Biochemical Assay (TR-FRET); read-out: TR-FRET hcCbl IC50
T1 sequence (P22681 47-435): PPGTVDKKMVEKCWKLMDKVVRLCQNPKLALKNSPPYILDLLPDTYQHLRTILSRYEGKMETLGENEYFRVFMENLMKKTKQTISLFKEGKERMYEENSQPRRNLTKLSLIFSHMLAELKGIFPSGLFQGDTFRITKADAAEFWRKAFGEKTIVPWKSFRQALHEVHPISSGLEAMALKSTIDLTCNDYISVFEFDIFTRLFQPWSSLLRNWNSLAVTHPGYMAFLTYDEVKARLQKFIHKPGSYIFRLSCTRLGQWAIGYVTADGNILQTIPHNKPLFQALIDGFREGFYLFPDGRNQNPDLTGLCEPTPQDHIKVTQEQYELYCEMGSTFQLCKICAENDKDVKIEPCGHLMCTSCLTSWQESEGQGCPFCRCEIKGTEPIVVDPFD

Sequence of Recombinant human Cbl-b (aa 36-427) (Q13191 36-427): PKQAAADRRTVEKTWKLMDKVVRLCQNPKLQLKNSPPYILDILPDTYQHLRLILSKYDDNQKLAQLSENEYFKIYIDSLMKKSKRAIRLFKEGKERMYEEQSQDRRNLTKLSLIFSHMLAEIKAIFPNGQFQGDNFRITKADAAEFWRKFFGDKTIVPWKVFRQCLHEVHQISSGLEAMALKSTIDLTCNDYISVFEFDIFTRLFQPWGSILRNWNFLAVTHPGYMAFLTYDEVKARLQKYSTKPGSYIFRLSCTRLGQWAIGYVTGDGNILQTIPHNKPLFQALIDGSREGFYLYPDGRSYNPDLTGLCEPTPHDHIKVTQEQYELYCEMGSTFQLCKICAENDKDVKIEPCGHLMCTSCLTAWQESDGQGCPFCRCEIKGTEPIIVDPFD

SMILES	IC50 [1] [nM]	EC50 [2] [nM]	IC50 [3] [nM]
Cn1cnnc1-c1cc(Cl)ccc1-c1cccc(-c2nc3cc(CN[C@@H]4CCC[C@@H]4O)cc(C(F)(F)F)c3o2)c1 [ADI-3, (1S,2R)-2-[({2-[4′-Chloro-2′-(4-methyl-1,2,4-triazol-3-yl)-[1,1′-biphenyl]-3-yl]-7-(trifluoromethyl)-1,3-benzoxazol-5-yl}methyl)amino]cyclopentan-1-ol]	< 200	< 200	< 200
Cn1cnnc1-c1cc(Cl)ccc1-c1cccc(-c2nc3cc(CO)ccc3o2)c1 [ADK-1, {2-[4′-Chloro-2′-(4-methyl-1,2,4-triazol-3-yl)-[1,1′-biphenyl]-3-yl]-1,3-benzoxazol-5-yl}methanol]	1000 to 10000	10000 to 50000	1000 to 10000
Cn1cnnc1-c1cc(Cl)ccc1-c1cccc(-c2nc3cc(CN[C@@H]4CCC[C@@H]4O)ccc3o2)c1 [ADL-2, (1S,2R)-2-[({2-[4′-Chloro-2′-(4-methyl-1,2,4-triazol-3-yl)-[1,1′-biphenyl]-3-yl]-1,3-benzoxazol-5-yl}methyl)amino]cyclopentan-1-ol]	< 200	< 200	< 200
CCOc1cc(-c2ccc(F)cc2-c2nncn2C)cc(-c2nc3cc(CN[C@@H]4CCC[C@@H]4O)cc(OC)c3o2)n1 [ADM-14, (1S,2R)-2-{[(2-{6-Ethoxy-4-[4-fluoro-2-(4-methyl-1,2,4-triazol-3-yl)phenyl]pyridin-2-yl}-7-methoxy-1,3-benzoxazol-5-yl)methyl]amino}cyclopentan-1-ol]	< 200	< 200	< 200
COCCNCc1cc(C(F)(F)F)c2oc(-c3cccc([C@]4(c5nncn5C)C[C@@H](C)C4)c3)nc2c1 [ADN-1, (2-Methoxyethyl)[(2-{3-[(1r,3s)-3-methyl-1-(4-methyl-1,2,4-triazol-3-yl)cyclobutyl]phenyl}-7-(trifluoromethyl)-1,3-benzoxazol-5-yl)methyl]amine]	< 200	200 to 1000	200 to 1000
C[C@H]1CCCN(Cc2cc(C(F)(F)F)c3oc(-c4cc(-c5ccc(F)cc5-c5nncn5C)cc(C5CC5)n4)nc3c2)C1 [ADO-1, 2-{6-Cyclopropyl-4-[4-fluoro-2-(4-methyl-1,2,4-triazol-3-yl)phenyl]pyridin-2-yl}-5-{[(3S)-3-methylpiperidin-1-yl]methyl}-7-(trifluoromethyl)-1,3-benzoxazole]	< 200	< 200	< 200
COC(=O)c1ccc2oc(-c3cc(-c4ccc(F)cc4-c4nncn4C)cc(C4CC4)n3)nc2c1 [ADP-1, Methyl 2-{6-cyclopropyl-4-[4-fluoro-2-(4-methyl-1,2,4-triazol-3-yl)phenyl]pyridin-2-yl}-1,3-benzoxazole-5-carboxylate]	10000 to 50000	10000 to 50000	10000 to 50000
Cn1cnnc1-c1cc(F)ccc1-c1cc(-c2nc3cc(CO)ccc3o2)nc(C2CC2)c1 [ADQ-1, (2-{6-Cyclopropyl-4-[4-fluoro-2-(4-methyl-1,2,4-triazol-3-yl)phenyl]pyridin-2-yl}-1,3-benzoxazol-5-yl)MeOH]	1000 to 10000	10000 to 50000	1000 to 10000
Cn1cnnc1-c1cc(F)ccc1-c1cc(-c2nc3cc(CNCC4(O)CCC4)cc(C(F)(F)F)c3o2)nc(C2CC2)c1 [ADR-1, 1-((((2-(6-Cyclopropyl-4-(4-fluoro-2-(4-methyl-4H-1,2,4-triazol-3-yl)phenyl)pyridin-2-yl)-7-(trifluoromethyl)benzo[d]oxazol-5-yl)methyl)amino)methyl)cyclobutan-1-ol]	< 200	< 200	< 200
COCCNCc1cc(C(F)(F)F)c2oc(-c3cc(-c4ccc(F)cc4-c4nncn4C)cc(C4CC4)n3)nc2c1 [ADS-1, N-((2-(6-Cyclopropyl-4-(4-fluoro-2-(4-methyl-4H-1,2,4-triazol-3-yl)phenyl)pyridin-2-yl)-7-(trifluoromethyl)benzo[d]oxazol-5-yl)methyl)-2-methoxyethan-1-amine]	< 200	< 200	< 200
Cn1cnnc1-c1cc(Cl)ccc1-c1cc(-c2nc3cc(CNCC4(O)CCC4)ccc3o2)nc(C2CC2)c1 [ADT-12, 1-({[(2-{4-[4-Chloro-2-(4-methyl-1,2,4-triazol-3-yl)phenyl]-6-cyclopropylpyridin-2-yl}-1,3-benzoxazol-5-yl)methyl]amino}methyl)cyclobutan-1-ol]	< 200	< 200	< 200

Continued, values first:

IC50 [1] [nM]	EC50 [2] [nM]	IC50 [3] [nM]	SMILES
< 200	200 to 1000	< 200	Cn1cnnc1-c1cc(F)ccc1-c1cc(-c2nc3cc(CO)cc(C(F)(F)F)c3[nH]2)nc(C2CC2)c1 [ADU-2, (2-{6-Cyclopropyl-4-[4-fluoro-2-(4-methyl-1,2,4-triazol-3-yl)phenyl]pyridin-2-yl}-7-(trifluoromethyl)-1H-1,3-benzodiazol-5-yl)methanol]
< 200	< 200	< 200	Cn1cnnc1-c1cc(F)ccc1-c1cc(-c2nc3cc(CN[C@@H]4CCC[C@@H]4O)cc(C(F)(F)F)c3[nH]2)nc(C2CC2)c1 [ADV-2, (1S,2R)-2-{[(2-{6-Cyclopropyl-4-[4-fluoro-2-(4-methyl-1,2,4-triazol-3-yl)phenyl]pyridin-2-yl}-7-(trifluoromethyl)-1H-1,3-benzodiazol-5-yl)methyl]amino}cyclopentan-1-ol]
< 200	< 200	< 200	COCCNCc1cc(C(F)(F)F)c2[nH]c(-c3cc(-c4ccc(F)cc4-c4nncn4C)cc(C4CC4)n3)nc2c1 [ADW-1, [(2-{6-Cyclopropyl-4-[4-fluoro-2-(4-methyl-1,2,4-triazol-3-yl)phenyl]pyridin-2-yl}-7-(trifluoromethyl)-1H-1,3-benzodiazol-5-yl)methyl](2-methoxyethyl)amine]
< 200	< 200	< 200	Cn1cnnc1-c1cc(F)ccc1-c1cc(Cl)nc(-c2nc3cc(CN[C@@H]4CCC[C@@H]4O)cc(C(F)(F)F)c3[nH]2)c1 [ADY-2, (1S,2R)-2-{[(2-{6-Chloro-4-[4-fluoro-2-(4-methyl-1,2,4-triazol-3-yl)phenyl]pyridin-2-yl}-7-(trifluoromethyl)-1H-1,3-benzodiazol-5-yl)methyl]amino}cyclopentan-1-ol]
< 200	200 to 1000	< 200	Cn1cnnc1[C@]1(c2cccc(-c3nc4cc(CNCC5CCC5)cc(C(F)(F)F)c4o3)c2)C[C@H](C)C1 [ADZ-1, (Cyclobutylmethyl)[(2-{3-[(1r,3s)-3-methyl-1-(4-methyl-1,2,4-triazol-3-yl)cyclobutyl]phenyl}-7-(trifluoromethyl)-1,3-benzoxazol-5-yl)methyl]amine]
< 200	200 to 1000	1000 to 10000	Cn1cnnc1-c1cc(F)ccc1-c1cccc(-c2nc3cc(CNCC(C)(C)O)cc(C(F)(F)F)c3o2)c1 [AE-2, 1-(((2-(4′-Fluoro-2′-(4-methyl-4H-1,2,4-triazol-3-yl)-[1,1′-biphenyl]-3-yl)-7-(trifluoromethyl)benzo[d]oxazol-5-yl)methyl)amino)-2-methylpropan-2-ol]
< 200	200 to 1000	< 200	COc1cc(CN[C@@H]2CCC[C@@H]2O)cc2nc(-c3cccc([C@]4(c5nncn5C)C[C@@H](C)C4)c3)oc12 [AEC-2]
< 200	200 to 1000	< 200	Cn1cnnc1-c1cc(F)ccc1-c1cc(-c2nc3cc(CN[C@@H]4CCC[C@@H]4O)ccc3[nH]2)nc(C2CC2)c1 [AEF-2, (1S,2R)-2-(((2-(6-Cyclopropyl-4-(4-fluoro-2-(4-methyl-4H-1,2,4-triazol-3-yl)phenyl)pyridin-2-yl)-1H-benzo[d]imidazol-5-yl)methyl)amino)cyclopentan-1-ol]
< 200	< 200	< 200	Cn1cnnc1-c1cc(F)ccc1-c1ccnc(-c2nc3cc(CN[C@@H]4CCC[C@@H]4O)cc(C(F)(F)F)c3o2)c1 [AEG-8, (1S,2R)-2-{[(2-{4-[4-Fluoro-2-(4-methyl-1,2,4-triazol-3-yl)phenyl]pyridin-2-yl}-7-(trifluoromethyl)-1,3-benzoxazol-5-yl)methyl]amino}cyclopentan-1-ol]
< 200	< 200	< 200	Cn1cnnc1-c1cc(F)ccc1-c1cc(-c2nc3cc(CN[C@@H]4CCC[C@@H]4O)ccc3o2)nc(C2CC2)c1 [AEH-2, (1S,2R)-2-{[(2-{6-Cyclopropyl-4-[4-fluoro-2-(4-methyl-1,2,4-triazol-3-yl)phenyl]pyridin-2-yl}-1,3-benzoxazol-5-yl)methyl]amino}cyclopentan-1-ol]
< 200	200 to 1000	< 200	Cn1cnnc1-c1cc(F)ccc1-c1cc(-c2nc3cc(CNCC4CC4)ccc3o2)nc(C2CC2)c1 [AEI-1, [(2-{6-Cyclopropyl-4-[4-fluoro-2-(4-methyl-1,2,4-triazol-3-yl)phenyl]pyridin-2-yl}-1,3-benzoxazol-5-yl)methyl](cyclopropylmethyl)amine]
1000 to 10000	1000 to 10000	1000 to 10000	CCNc1cc(-c2ccc(F)cc2-c2nncn2C)cc(-c2nc3cc(C(=O)OC)cc(C(F)(F)F)c3o2)n1 [AEK-2, Methyl 2-[6-(ethylamino)-4-[4-fluoro-2-(4-methyl-1,2,4-triazol-3-yl)-phenyl]-pyridin-2-yl]-7-(trifluoromethyl)-1,3-benzoxazole-5-carboxylate]
